Read-outs that look alike come from different tables or passages of the source.
How the values were obtained:
[1] = biological target: wild-type human cardiac sodium channel, hNaV 1.5 (Late INa) (Homo sapiens, UniProt Q14524); assay: Late INa screening assay (whole cell patch clamp, QPatch, Tefluthrin-induced late current); format: cell-based; details: HEK293 hNaV1.5, 10 μM Tefluthrin; for inhibition at 1 µM: HEK293, % inhibition (percent block of late INa) at 1 uM, read-out: Nav1.5 Late INa 1 uM
Method in brief: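 HEK293 cells stably expressing hNaV1.5 without beta subunits, whole-cell patch clamp at 23-25° C; late current induced by 10 μM Tefluthrin, measured 240-265 ms into 250 ms steps to −20 mV from −120 mV at 0.1 Hz. Compounds typically 0.3 or 1 μM, three additions over 5 min; percent block normalized to 0Na baseline with rundown correction.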

[2] = biological target: wild-type human cardiac sodium channel, hNaV 1.5 (Peak INa) (Homo sapiens, UniProt Q14524); assay: Peak INa screening assay (tonic block and use-dependent block); format: cell-based
Method: The assay uses an HEK293 (human embryonic kidney) cell line heterologously expressing the wild-type human cardiac sodium channel, hNaV 1.5, purchased from Millipore (Billerica, Mass.). No beta subunits were coexpressed with the Na channel alpha subunit. Cells are maintained with standard tissue culture procedures and stable channel expression is maintained with 400 μg/mL Geneticin in the culture medium. […] Currents are digitized at 25 kHz and low-pass filtered at 5 kHz and stored in the Sophion Bioscience Oracle database (Sophion Bioscience, Copenhagen, Denmark). Analysis is performed using QPatch Assay software and data are compiled in Excel 2010 (Microsoft, Seattle, Wash., U.S.A.). Compound stocks are routinely made by the Gilead Sample Bank in vials to 10 mM in dimethyl sulfoxide (DMSO). In some cases, when compounds are not soluble in DMSO, they are made in 100% ethanol. Stocks are sonicated as necessary. The extracellular solution for screening Late INa is composed of: 140 mM NaCl, 4 mM KCl, 1.8 mM CaCl2, 1 mM MgCl2, 10 mM HEPES and 10 mM Dextrose with pH adjusted to 7.35 using NaOH. The intracellular solution contains: 105 mM CsF, 20 mM CsCl, 10 NaF, 2 mM EGTA, 10 mM HEPES and 10 mM Dextrose with pH adjusted to 7.35 with CsOH. Compounds are diluted in extracellular solution using a MicroLab Nimbus (Hamilton Robotics, Reno, Nev.) to between 0.3 and 3 μM in glass vials and transferred to glass well plates before robotic addition to the cells. […] It is contemplated that the compounds of Formula I avoid significant block of peak INa. […] The intracellular solution used for the Peak INa assay is the same as outlined for the Late INa assay (see above). After establishing the whole cell recording configuration, channels were stimulated to open with low frequency (0.1 Hz) for so that the recording can be monitored and the extent to which the recording has stabilized can be assessed. The test compound is then applied at 1 or 3 μM was added 2 times at 60 second intervals. After the second compound addition, a 200 second wait period was imposed to allow for equilibration. Voltage protocols for TB and UDB are were performed in the absence and presence of compound and TB and UDB are calculated with respect to the compound free condition. Both TB and UDB were analyzed by incorporating rundown correction for the peak INa.

[3] = % inhibition, use-dependent block of peak INa at 3 uM, 3 Hz, pulse 50, read-out: Nav1.5 Peak UDB 3 Hz 3 uM
[4] = read-out: Nav1.5 Peak TB 3 uM, % inhibition, tonic block of peak INa at 3 uM, 0.1 Hz, holding -100 mV

Chain of wild-type human cardiac sodium channel, hNaV 1.5 (Late INa) (Q14524 whole entry): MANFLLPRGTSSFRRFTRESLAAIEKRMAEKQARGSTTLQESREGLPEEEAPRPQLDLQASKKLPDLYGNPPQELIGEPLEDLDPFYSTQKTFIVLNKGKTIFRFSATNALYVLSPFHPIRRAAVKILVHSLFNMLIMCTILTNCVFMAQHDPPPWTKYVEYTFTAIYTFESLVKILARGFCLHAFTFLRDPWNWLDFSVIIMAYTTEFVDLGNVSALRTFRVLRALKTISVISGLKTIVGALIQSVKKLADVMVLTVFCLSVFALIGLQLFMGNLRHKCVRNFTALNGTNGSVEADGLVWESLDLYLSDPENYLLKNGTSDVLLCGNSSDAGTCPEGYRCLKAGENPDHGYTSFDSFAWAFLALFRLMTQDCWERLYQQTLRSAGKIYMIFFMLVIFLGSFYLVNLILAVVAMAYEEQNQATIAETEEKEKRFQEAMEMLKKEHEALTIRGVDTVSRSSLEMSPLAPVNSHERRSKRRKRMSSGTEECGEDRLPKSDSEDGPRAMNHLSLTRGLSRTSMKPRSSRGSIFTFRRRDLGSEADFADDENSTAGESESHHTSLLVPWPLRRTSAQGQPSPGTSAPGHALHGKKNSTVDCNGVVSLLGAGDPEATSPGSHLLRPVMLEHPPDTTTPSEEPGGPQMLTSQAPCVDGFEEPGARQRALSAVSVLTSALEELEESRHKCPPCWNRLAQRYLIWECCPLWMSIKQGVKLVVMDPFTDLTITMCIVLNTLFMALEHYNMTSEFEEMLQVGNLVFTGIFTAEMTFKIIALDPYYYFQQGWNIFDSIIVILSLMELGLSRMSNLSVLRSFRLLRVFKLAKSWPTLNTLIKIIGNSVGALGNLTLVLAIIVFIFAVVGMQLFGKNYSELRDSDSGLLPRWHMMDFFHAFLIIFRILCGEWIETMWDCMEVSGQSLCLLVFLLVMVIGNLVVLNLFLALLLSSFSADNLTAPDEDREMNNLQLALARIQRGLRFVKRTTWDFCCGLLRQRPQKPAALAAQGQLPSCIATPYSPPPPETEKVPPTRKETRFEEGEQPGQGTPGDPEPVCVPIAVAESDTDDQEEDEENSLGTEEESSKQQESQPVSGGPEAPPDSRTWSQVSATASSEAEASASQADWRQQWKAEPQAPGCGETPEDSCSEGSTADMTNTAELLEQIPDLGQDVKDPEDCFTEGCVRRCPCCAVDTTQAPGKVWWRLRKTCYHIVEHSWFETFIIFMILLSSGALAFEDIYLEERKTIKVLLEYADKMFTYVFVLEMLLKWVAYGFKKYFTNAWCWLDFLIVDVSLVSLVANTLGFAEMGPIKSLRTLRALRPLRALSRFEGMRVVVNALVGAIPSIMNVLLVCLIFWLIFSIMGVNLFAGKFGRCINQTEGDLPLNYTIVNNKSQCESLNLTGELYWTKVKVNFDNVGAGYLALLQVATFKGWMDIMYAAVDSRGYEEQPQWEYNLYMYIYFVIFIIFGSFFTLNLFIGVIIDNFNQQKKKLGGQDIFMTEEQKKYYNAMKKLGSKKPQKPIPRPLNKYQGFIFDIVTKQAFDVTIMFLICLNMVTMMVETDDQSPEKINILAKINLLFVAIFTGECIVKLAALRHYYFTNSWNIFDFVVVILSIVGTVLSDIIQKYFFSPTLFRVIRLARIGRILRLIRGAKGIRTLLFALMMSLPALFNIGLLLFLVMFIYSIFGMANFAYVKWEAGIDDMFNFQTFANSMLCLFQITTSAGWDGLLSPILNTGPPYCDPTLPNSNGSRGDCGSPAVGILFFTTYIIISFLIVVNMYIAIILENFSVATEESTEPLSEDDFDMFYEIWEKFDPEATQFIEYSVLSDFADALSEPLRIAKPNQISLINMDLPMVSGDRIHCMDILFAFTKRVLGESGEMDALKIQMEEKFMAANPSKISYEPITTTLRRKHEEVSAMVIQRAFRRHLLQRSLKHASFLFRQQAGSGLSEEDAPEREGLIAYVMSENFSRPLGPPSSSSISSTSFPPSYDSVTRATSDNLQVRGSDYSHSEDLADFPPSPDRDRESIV
Chain of wild-type human cardiac sodium channel, hNaV 1.5 (Peak INa) (Q14524 whole entry): as above

SMILES | inhibition at 1 µM [1] [%] | inhibition at 3 µM [2, 3] [%] | inhibition at 3 µM [2, 4] [%] | Nav1.5 Late INa 1 uM ([1]; % inhibition (percent block of late INa) at 1 uM) [%] | Nav1.5 Peak TB 3 uM ([2]; % inhibition, tonic block of peak INa at 3 uM, 0.1 Hz, holding -100 mV) [%] | Nav1.5 Peak UDB 3 Hz 3 uM ([2]; % inhibition, use-dependent block of peak INa at 3 uM, 3 Hz, pulse 50) [%]
CCCOc1cc(C(F)(F)F)ccc1-c1ccc2c(c1)CN(Cc1ncccn1)C(=O)O2 [Example 27, 6-(2-propoxy-4-(trifluoromethyl)phenyl)-3-(pyrimidin-2-ylmethyl)-3,4-dihydro-2H-benzo[e][1,3]oxazin-2-one] | 60.1 | 8.1 | 32 |  |  | 
O=C1Oc2ccc(-c3ccc(C(F)(F)F)cc3)cc2CN1CCc1ncccn1 [Example 17, 3-(2-(pyrimidin-2-yl)ethyl)-6-(4-(trifluoromethyl)phenyl)-3,4-dihydro-2H-benzo[e][1,3]oxazin-2-one] | 45 | < 5 | 12.9 |  |  | 
CC1c2cc(-c3cccc(OC(F)(F)F)c3)ccc2OC(=O)N1Cc1ncccn1 (centres unmarked) [Example 50, 4-methyl-3-(pyrimidin-2-ylmethyl)-6-(3-(trifluoromethoxy)phenyl)-3,4-dihydro-2H-benzo[e][1,3]oxazin-2-one] | 34.9 | 12.1 | 17.7 |  |  | 
CC1c2cc(-c3ccc(Cl)c(F)c3)ccc2OC(=O)N1Cc1ncccn1 (centres unmarked) [Example 11, 6-(4-chloro-3-fluorophenyl)-4-methyl-3-(pyrimidin-2-ylmethyl)-3,4-dihydro-2H-benzo[e][1,3]oxazin-2-one] | 32.5 | 5.6 | 19.4 |  |  | 
Cc1cccc(CN2Cc3cc(-c4ccc(OC(F)(F)F)cc4F)ccc3OC2=O)n1 [Example 47, 6-(2-fluoro-4-(trifluoromethoxy)phenyl)-3-((6-methylpyridin-2-yl)methyl)-3,4-dihydro-2H-benzo[e][1,3]oxazin-2-one] | 52.8 | < 5 | 44.3 |  |  | 
CCCOc1cc(C(F)(F)F)ccc1-c1ccc2c(c1)CN(CCc1ncccn1)C(=O)O2 [Example 19, 6-(2-propoxy-4-(trifluoromethyl)phenyl)-3-(2-(pyrimidin-2-yl)ethyl)-3,4-dihydro-2H-benzo[e][1,3]oxazin-2-one] | 68 | 9.6 | 26.7 |  |  | 
CCCOc1cc(OC(F)(F)F)ccc1-c1ccc2c(c1)CN(Cc1ncccn1)C(=O)O2 [Example 28, 6-(2-propoxy-4-(trifluoromethoxy)phenyl)-3-(pyrimidin-2-ylmethyl)-3,4-dihydro-2H-benzo[e][1,3]oxazin-2-one] | 45.4 | 6.9 | 12.9 |  |  | 
Cc1ccnc(CN2Cc3cc(-c4ccc(C(F)(F)F)cc4)ccc3OC2=O)n1 [Example 30, 3-((4-methylpyrimidin-2-yl)methyl)-6-(4-(trifluoromethyl)phenyl)-3,4-dihydro-2H-benzo[e][1,3]oxazin-2-one] | 54.5 | 13.2 | 36.5 |  |  | 
CCOc1cc(C(F)(F)F)ccc1-c1ccc2c(c1)CN(Cc1ncccn1)C(=O)O2 [Example 35, 6-(2-ethoxy-4-(trifluoromethyl)phenyl)-3-(pyrimidin-2-ylmethyl)-3,4-dihydro-2H-benzo[e][1,3]oxazin-2-one] | 49.4 | 9.7 | 20.2 |  |  | 
Cc1cccc(CN2Cc3cc(-c4ccc(C(F)(F)F)cc4F)ccc3OC2=O)n1 [Example 45, 6-(2-fluoro-4-(trifluoromethyl)phenyl)-3-((6-methylpyridin-2-yl)methyl)-3,4-dihydro-2H-benzo[e][1,3]oxazin-2-one] | 53.6 | < 5 | 33.5 |  |  | 
COc1cc(OC(F)(F)F)ccc1-c1ccc2c(c1)CN(Cc1cccc(C)n1)C(=O)O2 [Example 46, 6-(2-methoxy-4-(trifluoromethoxy)phenyl)-3-((6-methylpyridin-2-yl)methyl)-3,4-dihydro-2H-benzo[e][1,3]oxazin-2-one] | 51.3 | < 5 | 34.7 |  |  | 
Cc1cnc(CN2Cc3cc(-c4ccc(C(F)(F)F)cc4F)ccc3OC2=O)nc1 [Example 41, 6-(2-fluoro-4-(trifluoromethyl)phenyl)-3-((5-methylpyrimidin-2-yl)methyl)-3,4-dihydro-2H-benzo[e][1,3]oxazin-2-one] | 45.7 | < 5 | 17.5 |  |  | 
COc1cc(OC(F)(F)F)ccc1-c1ccc2c(c1)CN(Cc1nc(C)cs1)C(=O)O2 [Example 58, 6-(2-methoxy-4-(trifluoromethoxy)phenyl)-3-((4-methylthiazol-2-yl)methyl)-3,4-dihydro-2H-benzo[e][1,3]oxazin-2-one] | 44.1 | < 5 | 7.9 |  |  | 
COc1cc(OC(F)(F)F)ccc1-c1ccc2c(c1)CN(Cc1ncccn1)C(=O)O2 [Example 9, 6-(2-methoxy-4-(trifluoromethoxy)phenyl)-3-(pyrimidin-2-ylmethyl)-3,4-dihydro-2H-benzo[e][1,3]oxazin-2-one] |  |  |  | 45.0 | 18.9 | <5
Cc1csc(CN2Cc3cc(-c4ccc(OC(F)(F)F)cc4Cl)ccc3OC2=O)n1 [Example 57, 6-(2-chloro-4-(trifluoromethoxy)phenyl)-3-((4-methylthiazol-2-yl)methyl)-3,4-dihydro-2H-benzo[e][1,3]oxazin-2-one] | 34.1 | < 5 |  |  |  | 
COc1cc(C(F)(F)F)ccc1-c1ccc2c(c1)CN(Cc1cccc(C)n1)C(=O)O2 [Example 44, 6-(2-methoxy-4-(trifluoromethyl)phenyl)-3-((6-methylpyridin-2-yl)methyl)-3,4-dihydro-2H-benzo[e][1,3]oxazin-2-one] | 44.8 | < 5 | 21.6 |  |  | 
O=C1Oc2ccc(-c3ccc(C4(C(F)(F)F)CC4)cc3)cc2CN1Cc1ncccn1 [Example 38, 3-(pyrimidin-2-ylmethyl)-6-(4-(1-(trifluoromethyl)cyclopropyl)phenyl)-3,4-dihydro-2H-benzo[e][1,3]oxazin-2-one] | 54.2 | < 5 | 55.6 |  |  | 
Cc1cc(OC(F)(F)F)ccc1-c1ccc2c(c1)CN(Cc1ncccn1)C(=O)O2 [Example 8, 6-(2-methyl-4-(trifluoromethoxy)phenyl)-3-(pyrimidin-2-ylmethyl)-3,4-dihydro-2H-benzo[e][1,3]oxazin-2-one] | 52.7 | < 5 | 12.5 |  |  | 
CC(C)Oc1cc(OC(F)(F)F)ccc1-c1ccc2c(c1)CN(Cc1ncccn1)C(=O)O2 [Example 39, 6-(2-isopropoxy-4-(trifluoromethoxy)phenyl)-3-(pyrimidin-2-ylmethyl)-3,4-dihydro-2H-benzo[e][1,3]oxazin-2-one] | 33.7 | 5.9 | 17.5 |  |  | 
COc1cc(OC(F)(F)F)ccc1-c1ccc2c(c1)CN(Cc1ccccn1)C(=O)O2 [Example 22, 6-(2-methoxy-4-(trifluoromethoxy)phenyl)-3-(pyridin-2-ylmethyl)-3,4-dihydro-2H-benzo[e][1,3]oxazin-2-one] | 48.3 | < 5 | 24.9 |  |  | 

From patent US9416128B2, “Fused heterocyclic compounds as ion channel modulators” (Gilead Sciences, Inc., priority 2013, dated 2016)
